Laboratory results from patent US11020364B2, “Palmitoleic acid for use in inhibiting the attachment of sea lice to fish” (INSTITUT DE RECHERCHE EN SEMIOCHIMIE ET ETHOLOGIE APPLIQUEE, priority 2014, dated 2021).
Where “and” joins values, the source holds several entries; their conditions need not be identical. Identical values can stand only once.

Experiments:
[1] = tested on: Lepeophtheirus salmonis copepodids; experiment: Infestation test with isomer in Atlantic salmon (Example 7); type: in vivo
Procedure: The aim of this example was to test the efficacy of an isomer of Sea Lice Copepodids Attachment Inhibiting Semiochemical (SCAIS) as an inhibitor of the infestation behavior of Lepoephtheirus salmonis copepodids in Atlantic salmon (Salmon salar). The test was realized using 4 rounds of 4 fish, eight of which were treated with trans-9-hexadecenoic acid and the other eight used as a control. For each round 4 fish were tested; i.e., 2 treated fish and 2 controls. To be included in the study the smolts had to have a body weight between 70 g and 150 g and the copepodits had to be able to swim actively. If the smolts had disease, loss of scales, fin damage, cataracts and/or swam abnormally they were not used in the study. If the copepodits were immobile after stimulation, they were rejected from the study. For each round 4 fish are caught and introduced into four 2-liter flat beakers supplied with 1.75 liters of seawater. The treated fish had 6 ppm of trans-9-hexadecenoic acid placed in their seawater, while in the control only seawater was used. 0.52 ml of the treatment or control were directly injected into 1.75 liters of seawater. The 4 fish were bathed in this solution for 10 minutes. The fish were then transferred to another 3.5 liter beaker supplied with 3.5 liters of seawater treated either with 3 ppm of trans-9-hexadecenoic acid or a control of simply seawater. 0.52 ml of the treatment of control were directly injected into 3.5 liters of seawater. The flat beakers were equipped with a valve such that 0.875 liters were emptied from the flat beaker. When the fish were introduced into the beakers, the valves were turned on. Ten minutes after the valves were turned on, the beakers were supplied with either 0.875 liters of the treatment of trans-9-hexadecenoic acid or 0.875 liters of the control of seawater. Ten minutes thereafter (20 minutes after the introduction of the fish into the beakers), the valves were turned off and 60 copepodits per fish were injected into each flat beaker. Five minutes later (25 minutes after introduction of the fish into the beakers), the valves were turned on. Ten minutes later (35 minutes after introduction of the fish into the beakers) each beaker was supplied with either 0.875 liters of trans-9-hexadecenoic acid or 0.875 liters of the control of seawater. Ten minutes later (45 minutes after introduction of the fish into the beakers) each beaker was supplied with either 0.875 liters of trans-9-hexadecenoic acid or 0.875 liters of the control of seawater. […] The content of plastic bag was then emptied above a filter and the number of copepodits was then counted on each filter using a magnifying glass. […] Data was analyzed using 9.4 SAS software (2002-2012 by SAS Institute Inc., Cary, N.C., U.S.A.). […]

copepodits = experiment: Infestation test of smolts with copepodits (Examples 4 to 6); type: in vivo, Lepeophtheirus salmonis
Procedure: This test exposed young salmons (smolts weighting almost 70 grams) to a high density group of copepodits during 45 minutes in a testing device, which consisted of four 23 cm diameter tanks, with an outflow. […] Light can modify the behavior of the copepodits which have phototropism. Each tank received a smolt for 45 min (FIG. 6). The copepodits were first fished out of their rearing tank and counted on a stereomicroscope. Four infesting doses of copepodits, containing 60 copepodits each, were prepared for each run of the test. The smolts were placed in a tank containing the treatment solution (or the placebo), which concentration in active substance was 6 ppm. This bath lasted for 10 minutes. Then the smolts were placed in a tank where they were kept in 3 ppm of the same treatment (product or placebo) used in the previous bath to begin the testing. The purpose of this process was to prevent any dramatic decrease in the concentration of the active product on their skin. During the first 10 minutes, the outflow was open and the tent was closed. At that moment each tank was refilled to reach the initial volume of oxygenated liquid (refilled with the same solution, product or placebo). The outflow was then closed for 5 minutes and the infesting dose was introduced in the tank. Then the outflow was opened and stayed opened for 30 minutes with a refill every 10 minutes (without opening the tent). After 45 minutes of exposure to the copepodits, the smolts were euthanized by administration of a toxic dose of anaesthetic agent Benzoake, at a concentration of 10 times the normal dose of 30 to 40 mg/l. The dead fish were placed in a plastic bag in which they were rubbed and rinsed with sea water. The skin of the fish was rubbed with a metallic spoon, to remove all the possible copepodits attached on it, as shown in FIG. 7. Each fish was washed thus detaching all of the copepodits and shells from the fish skin. The collected liquid from the washing was filtered to count the parasites. The copepodits were counted on the filter to obtain the number of copepodites on the outer body of the fish. The gills were then dissected to count the number of copepodits on the gills. The first phase of the test compared the number of copepodits on the body and on the gills, between replicas of the test. The purpose of this phase was to validate the test and measure its standard deviation. The second phase of the test compared the number of copepodits (abbreviated cops in the Tables below) on the body and on the gills, between treated smolts and reference smolts, as a control, which were just bathed in seawater plus ethyl alcohol for the five solutions. The same test as in Example 4 was repeated using palmitoleic acid. […] The same experiment was undertaken as described in Example 4.

[2] = tested on: Lepeophtheirus salmonis copepodids; experiment: Infestation test with water dispersible tablets (Example 9); type: in vivo
Description: The purpose of this example was to assess the efficacy of the sea lice copepodits attachment inhibiting semiochemical (SCAIS), continuously released by water dispersible tablets, on the infestation behaviour of Lepeophtheirus salmonis copepodids in Atlantic salmon smolts (Salmo salar).
72 Atlantic salmon (Salmo salar) in the smolt stage having a weight around 90 g and of the origin SALMAR® (Daugstad 6392 Vikebukt, Norway) were used in this study. 2,400 copepodits used were from the species Lepeophtheirus salmonis origin Ilab® (Bergen, Norway).
Infestation tests were measured at 1 hour, 24 hours, 72 hours and 120 hours after application of the treatment. Blood tests were undertaken at 0 hours, 1 hour, 24 hours, 72 hours and 120 hours after treatment.
[…] were used and the study was conducted in two parallel groups of Atlantic salmon smolts, one group was treated with the sea lice copepodits attachment inhibiting semiochemical tablets of cis-9-hexdecenoic acid, which were placed in a string bag half way down where the water resides in the rearing tank and the other group was the control using only ethyl alcohol.
The infestation test, carried out at 1 hour, 24 hours, 72 hours and 120 hours after application of the treatment was performed in the following manner. […]

[3] = 8 treated fish, 6 ppm then 3 ppm
[4] = mean of replicas, 6 ppm bath then 3 ppm, 60 copepodits, 45 minutes

Row | SMILES | Nb copepodits, Mean [1, 3] | Nb copepodits, Median [1, 3] | Number of copepodits ([1]; single fish, 6 ppm bath 10 minutes then 3 ppm, 60 copepodits per fish) | effect on number of copepodits attached in Atlantic salmons (in words) ([1]; vs seawater control) | Number of copepodits attached in the gills, Mean (copepodits; Example 6, Treated salmons) | Number of copepodits attached in the gills, Median (copepodits; Example 6, Treated salmons) | Number of copepodits attached to body, Mean (copepodits; Example 6, Treated salmons) | Number of copepodits attached to body, Median (copepodits; Example 6, Treated salmons) | reduction in number of copepodits attached on the body of the salmon (in words) (copepodits; Example 6, vs control salmons and control cods) | effect on attachment of copepodits on smolts (in words) (copepodits; Examples 4 and 5, vs reference smolts in seawater plus ethyl alcohol) | Cop on body, mean (copepodits; [4]) | Cop on gills, mean (copepodits; [4]) | Cop on body (copepodits; single replica (smolt), 6 ppm bath 10 minutes then 3 ppm, 60 copepodits, 45 minutes) | mean number of copepodits attached ([2]; treatment group, water dispersible tablets in rearing tank, 60 copepodits per fish, preliminary analysis) | protection in infestation tests (in words) ([2]; water dispersible tablets, 60 copepodits per fish in closed 3.5 liter tank)
1 | CCCCCC/C=C/CCCCCCCC(=O)O [SCAIS^iso, trans-9-hexadecenoic acid] | 10 | 9 | 8 | significant effect on the number of copepodits attached | – | – | – | – | – | – | – | – | – | – | –
2 | CCCCCC/C=C\CCCCCCCC(=O)O [palmitoleic acid, cis-9-hexadecenoic acid] | – | – | – | – | 2.375 | 2.5 | 6.25 | 6 | highly significant reduction | important reduction of the infestation | 8.0 | 2.8 | 6 and 11 and 7 and 8 | 10.6 | significant protection
